Assay [1] is described as follows: Growth inhibition of human H1299 cells. The format is functional. The following applies: NCI-H1299.
Assay [2] is described as follows: Growth inhibition of human Hep3B cells. The format is functional, Hep 3B2.
The test system of assay [3] is MDA-MB-231. The assay is described as follows: Growth inhibition of human MDA-MB-231 cells. Type of assay: functional.
Assay [4] relates to MDA-MB-231. Description: Induction of apoptosis in human MDA-MB-231 cells assessed as caspase 3 activation at 0.1 to 1 uM after 24 hrs by immunoblot method. The format is functional, cell-based.
Assay [5] has as its system MDA-MB-231. The assay is described as follows: Induction of cell cycle arrest in human MDA-MB-231 cells assessed as accumulation at G1 phase at 1 uM after 24 hrs by flow cytometry (reference value: 63.1 +/- 2.7%). Type of assay: functional. A general note: A flow cytometer gives signals particle by particle.
Assay [6] concerns MDA-MB-231. The assay is described as follows: Induction of cell cycle arrest in human MDA-MB-231 cells assessed as accumulation at subG1 phase at 0.5 uM after 24 hrs by flow cytometry (reference value: 3.3 +/- 1.5%). Type of assay: functional.
The test system of the next assay is H184B5F5/M10. Description: Antiproliferative activity against human H184B5F5/M10 cells at 0.1 to 5 uM after 12 to 48 hrs by XTT assay. The format is functional, cell-based. On the technique in general: Tetrazolium assays rely on reduction of a dye to a coloured formazan, in cell work by metabolically active cells.
In the next assay the test system is MCF7. Description: Antiproliferative activity against human MCF7 cells after 72 hrs by XTT assay. The format is functional, cell-based. The following applies: MCF7, 72 h.
The subject of assay [7] is MDA-MB-231. The assay is described as follows: Induction of cell cycle arrest in human MDA-MB-231 cells assessed as accumulation at G1 phase at 0.5 uM after 24 hrs by flow cytometry (reference value: 63.1 +/- 2.7%). The format is functional.
In assay [8] the test system is MDA-MB-231. Description: Antiproliferative activity against human MDA-MB-231 cells after 72 hrs by XTT assay. The format is functional, cell-based. The following applies: MDA-MB-231, 72 h.
Assay [9] relates to MDA-MB-231. The assay is described as follows: Induction of cell cycle arrest in human MDA-MB-231 cells assessed as accumulation at G1 phase at 0.1 uM after 24 hrs by flow cytometry (reference value: 63.1 +/- 2.7%). The format is functional.
The test system of assay [10] is MDA-MB-231. Description: Induction of cell cycle arrest in human MDA-MB-231 cells assessed as accumulation at S phase at 0.1 uM after 24 hrs by flow cytometry (reference value: 12.4 +/- 2.1%). Type of assay: functional.
A further assay has as its system SK-BR-3. Description: Antiproliferative activity against human SKBR3 cells after 72 hrs by XTT assay. The format is functional, cell-based. The following applies: SK-BR-3, 72 h.
The test system of assay [11] is MDA-MB-231. The assay is described as follows: Antiproliferative activity against human MDA-MB-231 cells after 48 hrs by XTT assay. The format is functional, cell-based.
The nature of assay [12]: Antiproliferative activity against human H460 cells after 72 hrs by XTT assay. Type of assay: functional, cell-based. The following applies: NCI-H460, 72 h.
For the next assay, the system named is A549. Description: Antiproliferative activity against human A549 cells after 72 hrs by XTT assay. The following applies: A549, 72 h. The format is functional, cell-based.
Assay [13] relates to MDA-MB-231. The assay is described as follows: Induction of cell cycle arrest in human MDA-MB-231 cells assessed as accumulation at subG1 phase at 0.1 uM after 24 hrs by flow cytometry (reference value: 3.3 +/- 1.5%). Type of assay: functional.
Assay [14] relates to MDA-MB-231. Description: Induction of cell cycle arrest in human MDA-MB-231 cells assessed as accumulation at S phase at 0.5 uM after 24 hrs by flow cytometry (reference value: 12.4 +/- 2.1%). The format is functional.
For assay [15], the system named is MDA-MB-231. Description: Induction of cell cycle arrest in human MDA-MB-231 cells assessed as accumulation at G2/M phase at 0.1 uM after 24 hrs by flow cytometry (reference value: 22.1 +/- 3.1%). The format is functional.
Assay [16] in a line: Antiproliferative activity against human H184B5F5/M10 cells after 72 hrs by XTT assay. The following applies: H184B5F5/M10, 72 h. Type of assay: functional, cell-based.
The test system of assay [17] is MDA-MB-231. The assay is described as follows: Induction of apoptosis in human MDA-MB-231 cells assessed as PARP cleavage at 0.1 to 1 uM after 24 hrs by immunoblot method. Type of assay: functional, cell-based.
The subject of assay [18] is MDA-MB-231. Description: Induction of cell cycle arrest in human MDA-MB-231 cells assessed as accumulation at subG1 phase at 1 uM after 24 hrs by flow cytometry (reference value: 3.3 +/- 1.5%). The format is functional.
Assay [19] has as its system MDA-MB-231. Description: Induction of cell cycle arrest in human MDA-MB-231 cells assessed as accumulation at G2/M phase at 1 uM after 24 hrs by flow cytometry (reference value: 22.1 +/- 3.1%). Type of assay: functional.
The test system of assay [20] is MDA-MB-231. Description: Antiproliferative activity against human MDA-MB-231 cells at 0.1 to 5 uM by XTT assay. Type of assay: functional, cell-based. The following applies: TDE = time-dependent effect.
In assay [21] the test system is MDA-MB-231. Description: Induction of morphological changes in human MDA-MB-231 cells at 0.5 uM after 24 hrs by light microscopy. The format is functional, cell-based.
Assay [22] deals with MDA-MB-231. The assay is described as follows: Induction of cell cycle arrest in human MDA-MB-231 cells assessed as accumulation at S phase at 1 uM after 24 hrs by flow cytometry (reference value: 12.4 +/- 2.1%). Type of assay: functional.
Assay [23] has as its system MDA-MB-231. The assay is described as follows: Induction of cell cycle arrest in human MDA-MB-231 cells assessed as accumulation at G2/M phase at 0.5 uM after 24 hrs by flow cytometry (reference value: 22.1 +/- 3.1%). The format is functional.
A short description of assay [24]: Antiproliferative activity against human H1299 cells after 72 hrs by XTT assay. The following applies: NCI-H1299, 72 h. The format is functional, cell-based.

As a reminder, the GI50 is the concentration at which growth is held to half of that of the control. A higher GI50 goes with lower sensitivity of the cells. For orientation: IC50 means the concentration at which inhibition is half-maximal. A low value points to greater potency in that assay.

Activity calls are given as the source filed them. The calls are words filed in the database; no cut-off is given here.

Take `Fc1ccc2nc(-c3ccc(OCCN4CCCCC4)cc3)c(-c3ccc(OCCN4CCCCC4)cc3)cc2c1`: the figures for the 50% growth inhibitory concentration (GI50) (in assay [1]; in assay [2]; in the assay with MDA-MB-231 [3]) were 1.46 µM, 0.71 µM and 0.72 µM, respectively.
For `COc1ccc(-c2cc3ccccc3nc2/C=C/C(=O)c2ccc(Br)s2)cc1`, the Activity entry in the assay with MDA-MB-231 [4] is “Dose-dependent effect”; in the assay on MDA-MB-231 [5], 30.1%; in the assay with MDA-MB-231 [6] it was 23.5%; with MDA-MB-231 [7] it was 39.6%; in the assay with MDA-MB-231 [9], 54.3%; with MDA-MB-231 [10], 13.1%. Further, the Activity result was “Dose-dependent effect” with MDA-MB-231 [11]; 8.1% with MDA-MB-231 [13]; 10.1% in the assay on MDA-MB-231 [14]; 25.7% in the assay with MDA-MB-231 [15]; “Dose-dependent effect” in the assay on MDA-MB-231 [17]; 33.4% in the assay with MDA-MB-231 [18]. The Activity in the assay with MDA-MB-231 [19] is 30.1%; with MDA-MB-231 [20] it was “tde”; in the assay with MDA-MB-231 [22] it was 7.2%; in the assay with MDA-MB-231 [23], 28.3%. In addition, the outcome in the assay with H184B5F5/M10 was inactive. Further, the IC50 in the assay on MCF7 is 0.91 µM; with MDA-MB-231 [8], less than 0.1 µM; in the assay on SK-BR-3, 0.52 µM; in [12] it was 5.17 µM; in the assay on A549, 6.25 µM; in assay [16], 9.38 µM. For the same compound, in assay [24], the midpoint of inhibition, the IC50, lay at 0.71 µM. Moreover, in the assay with MDA-MB-231 [21], the result was Active.
Consider `COc1ccc(-c2cc3ccccc3nc2/C=C/C(=O)c2ccccn2)cc1`, for which the IC50 in the assay with MCF7 amounted to 0.81 µM; in the assay on MDA-MB-231 [8], 0.74 µM; with SK-BR-3, 0.37 µM; in [12], 6.26 µM; in the assay with A549, 6.14 µM; in [16], 4.14 µM. Besides, in assay [24], the IC50 came out at 0.66 µM.
As for `COc1ccc(-c2cc3ccccc3nc2/C=C/C(=O)c2c[nH]c3ccccc23)cc1`, the IC50 is greater than 10 µM with MCF7; greater than 10 µM in the assay with MDA-MB-231 [8]; 3.45 µM in the assay with SK-BR-3; 8.01 µM in assay [12]; greater than 10 µM with A549; greater than 10 µM in assay [16]. Besides, the IC50 in assay [24] was greater than 10 µM.
For `COc1ccc(-c2cc3ccccc3nc2/C=C/C(=O)c2ccccc2)cc1`, the 50% inhibitory concentration (IC50) stood at 4.04 µM with MCF7; 0.86 µM with MDA-MB-231 [8]; 0.7 µM in the assay on SK-BR-3; 6.67 µM in assay [12]; 7.41 µM in the assay with A549; 8.56 µM in assay [16]. Besides, in [24], 1.41 µM corresponded to half-maximal inhibition (IC50).
With `COc1ccc(-c2cc3ccccc3nc2/C=C/C(=O)c2ccc(O)cc2)cc1`, the IC50 in the assay on MCF7 was found to be 6.71 µM; in the assay with MDA-MB-231 [8], 6.35 µM; in the assay on SK-BR-3 it was 3.88 µM; in assay [12] it was 6.93 µM; in the assay on A549 it was 7.44 µM; in assay [16], 5.69 µM. The same compound had an IC50 in assay [24] of 8.97 µM.
For the compound `COc1ccc(C(=O)/C=C/c2nc3ccccc3cc2-c2ccc(OC)cc2)cc1`, the half-maximal inhibitory concentration (IC50) in the assay with MCF7 is 7.38 µM; in the assay on MDA-MB-231 [8], 7.54 µM; in the assay on SK-BR-3, 9.28 µM; in assay [12] it was greater than 10 µM; in the assay on A549, 8.5 µM; in [16], greater than 10 µM. Further, in assay [24], half-maximal inhibition (IC50) was put at 6.42 µM.
For the compound `COc1ccc(-c2cc3ccccc3nc2/C=C/C(=O)c2ccc(N)cc2)cc1`, the IC50 is 6.92 µM in the assay with MCF7; 7.51 µM in the assay on MDA-MB-231 [8]; 8.56 µM in the assay on SK-BR-3; 7.4 µM in assay [12]; 7.53 µM in the assay with A549; 9.29 µM in assay [16]. In [24], the IC50 stood at 6.51 µM.
Take `COc1ccc(-c2cc3ccccc3nc2/C=C/C(=O)c2ccc[nH]2)cc1`: the IC50 (in the assay on MCF7; in the assay on MDA-MB-231 [8]; in the assay with SK-BR-3; in [12]; in the assay with A549; in assay [16]) was greater than 10 µM each time. For the same compound, the IC50 in assay [24] was greater than 10 µM.
For `COc1ccc(-c2cc3ccccc3nc2/C=C/C(=O)c2sccc2N)cc1`, the IC50 (with MCF7; in the assay with MDA-MB-231 [8]; in the assay on SK-BR-3; in [12]; in the assay with A549; in assay [16]) was greater than 10 µM each time. The compound also registered an IC50 in [24] greater than 10 µM.

The values are drawn from ChEMBL document CHEMBL2311509, “Synthesis and antiproliferative evaluation of 3-phenylquinolinylchalcone derivatives against non-small cell lung cancers and breast cancers” (Eur J Med Chem, 2013).
